Experimental data reported in PMC4674085, “Towards Prebiotic Catalytic Amyloids Using High Throughput Screening” (PLoS ONE, 2015).

Experiments:
[1] = Activity screen of the amyloid library, 4NPA hydrolysis in plate reader (Fig 1); type: biochemical; details: for hydrolytic activity in the screen: condition 2: pH 7.3 with ZnCl2, 40 μM crude peptide, 250 μM zinc(II), A400
Method: The most common assay for hydrolytic activity in enzymes is with the chromogenic substrate p-nitrophenyl acetate (4NPA). Therefore, 4NPA was chosen permitting a direct comparison of the hits from the screen with natural enzymes. Using an absorbance plate reader, we screened the activity of the amyloid library at a peptide concentration of 40 μM, fibrillized at pH 4 or 7.3 and in the presence of divalent cations (250 μM Co^2+, Cu^2+, Mg^2+, Mn^2+, Ni^2+, or Zn^2+) (Fig 1). […] Imidazole is known to catalyze 4NPA hydrolysis under these conditions via an acyl intermediate and it was used as a standard to compare the measured activity of the peptides from plate to plate.
Fig 1 Activity screens of peptide amyloids in various conditions. The hydrolysis rates of 4NPA measured for each of the peptide amyloids (in columns) are shown as a ratio to the negative control (buffer) with color-codes as indicated at the bottom of the Figure. A color code from black (rate ratio of 1.0) to light blue (1.5) to red (19) is used. Activities below the negative control are indicated with smaller disks and color-coded from light grey to black. Occasionally observed negative reaction rates are indicated by small blue disks. The peptide amyloids were tested in a total of 46 conditions of which 19 conditions are shown here (in rows). The peptides are numbered according to Table 2, including a short nomenclature highlighting only the variable residues (e.g. the peptide Ac-YVDVHVSV-CONH2 is abbreviated DHS). The conditions are sorted top-down with the highest observed activity at the top. A detailed list of the conditions tested are shown in Table B in S1 File, while below a compressed introduction to the different conditions is listed: (2) pH 7.3 with ZnCl2 (control for 33 without heating), (33) condition 2 and heated to 95°C for 1 h prior to screening, (46) condition 2 and screened in 50% DMSO, (39) condition 2 and screened with 4.75 M NaCl, (40) condition 2 and screened with 0.2 M MgCl2, (45) condition 2 and screened in 90% EtOH, (38) condition 2 and screened with 0.2 M NaCl, (30) pH 7.3 with ZnCl2 and 1 M Na2SO4, (35) pH 7.3 and screened in 4.75 M NaCl, (34) pH 7.3 and screened in 0.5 M NaCl, (37) pH 7.3 and screened in 2 M MgCl2, (27) pH 7.3 with ZnCl2 and 0.2 M MgCl2, (6) pH 7.3 with NiCl2, (4) pH 7.3 with CoCl2, (1) pH 7.3 without other additives, (41) condition 2 and screened in 2 M MgCl2, (5) pH 7.3 with CuCl2, (36) pH 7.3 and screened in 0.2 M MgCl2 and (8) pH 4.0 without other additives.
The reaction buffer consisted of the same buffer as the fibrillization buffer without ZnCl2 and with 1.33 mM 4NPA prepared from a 100 mM stock in CH3CN. The samples of the amyloid library were mixed 1:3 with the reaction buffer yielding 40 μM peptide and, when present 250 μM zinc(II). The absorbance measurements were performed in a BMG Pherastar platereader with a 400 nm band-pass filter (10 nm bandwidth) in 96-well Nunclon Delta surface plates or 384-well Greiner Bio-One non-bind black μclear plates.
Table B: Amyloid growth and measurement conditions.
Growth = Measurement1 Growth⁄= Measurement1
Divalent2 pH3 T (◦C) Additive Divalent pH T (◦C) Additive
1. The conditions for ﬁbrillization and 4NPA assay are the same for 1-32 except that the 4NPA assay was always at 30 ◦C and the divalent concentration was one-fourth as high. For condition 33, the sample was heated to 95 ◦C for 1 hour prior to the 4NPA assay and for 34-46 the samples were ﬁbrillized in condition 1 or 2 and then transferred to the new conditions with additive just for the 4NPA assay.
2. Divalent concentration is 1 mM for growth and 250µM for 4NPA assay.
3. Grown and measured in 50 mM buﬀer: HEPES at pH 7.3, NaOAc at pH 4.0, or phthalate at pH 2.2.

[2] = X-ray fiber diffraction of aligned fibrils; type: physicochemical; details: washed pellets dried between glass capillaries, room temperature
Method: The samples were centrifuged, the pellet resuspended (ultrapure water or 10 mM NaOAc pH 4) and centrifuged again. The washed pellets were resuspended in a minimal amount of water and 4 μl of the suspension were pipetted between the melted ends of two glass capillaries, which were then left to dry overnight in a sealed petri dish. The dried material was placed in an X-ray beam (Rigaku MicroMax-007HF) at room temperature for a 20 min exposure and diffraction data was collected on a Mar345 image plate detector.
Table A and associated data: Biophysical characterization of library […]
1. Fold increase in ThT ﬂuorescence over background.
2. CD spectra classiﬁed as follows: (β+) has minimum near 217 nm, (β++) has minimum near 217 nm and a maximum near 197 nm, (−) signal too weak to interpret, (?) spectra not typical of any secondary […]
3. The peak position in amide I region is given in cm−1. […]
within the typical range of stretching frequencies forβ-structure (between dashed lines at 1638 cm−1 and […]
4. (+) ﬁbrils present or (−) absent in EM micrographs.
5. Diﬀraction images recorded for the aligned ﬁbrils of 5 diﬀerent peptides (see materials and methods).

[3] = NMR-based 4NPA hydrolysis assay at pH 4.3; type: biochemical; details: 4NPA hydrolysis by 1D-1H NMR, 50 mM d3-NaOAc pH 4.3, 2% d6-DMSO, 40 μM total purified peptide (mixture 20 μM each), 0.9 mM 4NPA, 25°C, over 15 days, first order fit, no zinc(II)
Method: Purified peptides were solubilized in deuterated DMSO with 1% TFA at a concentration of 4 mM and subsequently diluted to 160 μM in 50 mM deuterated NaOAc buffer at pH 4.3. In the case of the peptide mixture fibrillization (12/21), each peptide was 80 μM. Fibrillization occurred over 5 days after which the sample was diluted to 40 μM total peptide in 50 mM buffer with 0.9 mM 4NPA (from a 90 mM stock solution in d6-DMSO) and a final concentration of d6-DMSO of 2%. From this reaction mixture 500 μl was transferred to a 5 mm NMR tube and measurements were performed in a 600 MHz Bruker NMR spectrometer equipped with a cryo-probe.
The hydrolysis kinetics were monitored in a continuous series of 1D-^1H experiments each consisting of 32 scans at 25°C and each requiring 17 min. In this manner, several time segments lasting between 8 and 17 hours were collected over a period of 15 days. Between measurements, the samples were kept at 25°C.
Data processing and peak integration was performed with Topspin3.2 (Bruker). Relevant peaks used for the analysis were the 4 aromatic protons of both 4NPA and of its product (p-nitrophenol) as well as the methyl groups of 4NPA and acetic acid. The ratio of the sum of integrals for the product protons to the sum of integrals for all protons was used to calculate the substrate concentration. […]

Substance | hydrolytic activity in the screen [1] | X-ray diffraction of aligned fibrils [2] | also measured
Ac-YVHVHVHV-NH2 [Peptide 8, Ac-YVHVHVHV-CONH2] | highest activity | cross-β | –
Ac-YVHVHVSV-NH2 [Peptide 11, Ac-YVHVHVSV-CONH2] | highest activity | – | –
Ac-YVHVHVDV-NH2 [Peptide 21, Ac-YVHVHVDV-CONH2] | – | – | k cat/K M [3]: 1598±20 10^-6M^-1s^-1
Ac-YVDVHVDV-NH2 [Peptide 25, Ac-YVDVHVDV-CONH2] | – | – | relative activity in the screen in 50% DMSO ([1]; condition 46: fibrillized at pH 7.3 with ZnCl2, screened in 50% DMSO, also activity above positive control (200 μM imidazole)): increased relative activity compared to the same condition without DMSO
Ac-YVSVHVHV-NH2 [Peptide 9, Ac-YVSVHVHV-CONH2] | highest activity | – | –
Ac-YVAVHVHV-NH2 [Peptide 27, Ac-YVAVHVHV-CONH2] | highest activity | cross-β | activity in the screen under extreme conditions ([1]; high organic solvent content (50% DMSO, 90% EtOH) or high salt (4.75 M NaCl, 1 M Na2SO4), with ZnCl2): often significant
